In article PMC2964152 (Journal of medicinal chemistry, 2010):
Where a name gives a salt, the structure may show the parent alone.

What was measured:
[1] = tested on: three melanoma cell lines and four human prostate cancer cell lines; experiment: In vitro growth inhibition, average of all seven cell lines; type: cell-based; conditions: for IC50: read-out: average IC50, average of all seven cell lines, as given in the text
[2] = Body weight during the in vivo efficacy study; conditions: any of the treatment groups, during the experiment
MDA-MB-435 = experiment: In vitro growth inhibition, sensitive parent melanoma cell line; type: cell-based, human; conditions: read-out: IC50 ± SEM MDA-MB-435, n=3
[3] = Aqueous solubility, miniaturized shake-flask method with LC-MS/MS; type: physicochemical
Bovine brain tubulin = experiment: In vitro microtubule polymerization assay; type: biochemical; conditions: 10 μM compound, absorbance at 340 nm, 15 min, 37°C

Compound `Cc1ccc(C(=O)c2c[nH]c(-c3ccccc3)n2)cc1` [5ah, (2-Phenyl-1H-imidazol-4-yl)(p-tolyl)methanone] has an IC50 [1] of over 10000 nM.
With “(4-Fluorophenyl)(2-(2-(trifluoromethyl)phenyl)-1H-imidazol-4-yl)methanone [5ib]” the IC50 [1] was over 10000 nM.
In the case of `COc1cccc(C(=O)c2c[nH]c(-c3ccccc3)n2)c1` [5ac, (3-Methoxyphenyl)(2-phenyl-1H-imidazol-4-yl)methanone], the IC50 [1] is reported as over 10000 nM.
With “(4-Fluorophenyl)(1-(phenylsulfonyl)-2-(p-tolyl)-1H-imidazol-4-yl) methanone [4db]” the IC50 [1] was 111 nM.
In the case of `O=C(c1ccc(F)cc1)c1c[nH]c(-c2ccc(OCc3ccccc3)cc2)n1` [5jb, (2-(4-(Benzyloxy)phenyl)-1H-imidazol-4-yl)(4-fluorophenyl)methanone], the “fold increase in activity compared with 5kb” value ([1]; from average IC50 values) is reported as 440 fold and the IC50 [1] is reported as 75 nM.
“(2-(4-(Benzyloxy)phenyl)-1-(phenylsulfonyl)-1 H-imidazol-4-yl)(4-fluorophenyl) methanone [4jb]” gave an IC50 [1] of 61 nM.
`COc1cc(C(=O)n2ccnc2-c2ccccc2)cc(OC)c1OC` [5aaa, (2-Phenyl-1H-imidazol-1-yl)(3,4,5-trimethoxyphenyl) methanone] showed an IC50 [1] of over 10000 nM.
Work on `Cc1cccc(C(=O)c2c[nH]c(-c3ccccc3)n2)c1` [5ai, (2-Phenyl-1H-imidazol-4-yl)(m-tolyl)methanone] yielded an IC50 [1] of over 10000 nM.
With `COc1cc(C(=O)c2c[nH]c(-c3ccc(C(F)(F)F)cc3)n2)cc(OC)c1OC` [5la, (2-(4-(Trifluoromethyl)phenyl)-1H-imidazol-4-yl)(3,4,5-trimethoxyphenyl)methanone] the “fold decrease of activity compared with compound 5da” value ([1]; from average IC50 values) was 12 fold and the IC50 [1] was 193 nM.
Compound `COc1ccc(C(=O)c2c[nH]c(-c3ccccc3)n2)cc1OC` [5ae, (3,4-Dimethoxyphenyl)(2-phenyl-1H-imidazol-4-yl)methanone] has an IC50 [1] of over 10000 nM.
For `CN(C)/N=N/c1[nH]cnc1C(N)=O` [DTIC, dacarbazine, reference compound], the weight loss [2] was “No significant weight loss”.
With “(2-(3, 4-Dimethoxyphenyl)-1-(phenylsulfonyl)-1H-imidazol-4-yl)(3,4,5-trimethoxyphenyl)methanone [4ha]” the IC50 [1] was 268 nM.
`O=[N+]([O-])c1ccc(-c2nccn2S(=O)(=O)c2ccccc2)cc1` [3x, 2-(4-Nitrophenyl)-1-(phenylsulfonyl)-1H -imidazole] showed an IC50 [1] of over 10000 nM.
With `COc1ccc(C(=O)n2ccnc2-c2ccccc2)cc1` [5aba, (4-Methoxyphenyl)(2-phenyl-1H-imidazol-1-yl) methanone] the IC50 [1] was over 10000 nM.
For “(4-Fluorophenyl)(2-(4-methoxyphenyl)-1-(phenylsulfonyl)-1H-imidazol-4-yl) methanone [4cb]”, the IC50 (MDA-MB-435) was 38 ± 3 nM and the IC50 [1] was 43 nM.
`COc1cc(C(=O)c2c[nH]c(-c3cc(OC)c(OC)c(OC)c3)n2)cc(OC)c1OC` [5ea, (3,4,5-Trimethoxyphenyl)(2-(3,4,5-trimethoxyphenyl)-1H-imidazol-4-yl)methanone] gave an IC50 [1] of over 10000 nM.
In the case of `COc1ccc(-c2nc(C(=O)c3cc(OC)c(OC)c(OC)c3)c[nH]2)cc1OC` [5ha, (2-(3,4-Dimethoxyphenyl)-1H-imidazol-4-yl)(3,4,5-trimethoxyphenyl)methanone], the IC50 [1] is reported as 330 nM.
Compound `O=S(=O)(c1ccccc1)n1ccnc1-c1ccccc1` [3a, 2-Phenyl-1-(phenylsulfonyl)-1H-imidazole] has an IC50 [1] of over 10000 nM.
With “(2-(4-(Dimethylamino)phenyl)-1-(phenylsulfonyl)-1H-imidazol-4-yl)(4-fluorophenyl)methanone [4gb]” the IC50 [1] was 87 nM.
Work on `Cc1ccc(-c2nc(C(=O)c3ccc(F)cc3)c[nH]2)cc1` [5db-HCl, (4-Fluorophenyl)(2-(p-tolyl)-1H-imidazol-4-yl)methanone HCl salt] yielded an IC50 [1] of 172 nM.
`COc1cc(-c2nc(C(=O)c3ccc(F)cc3)c[nH]2)cc(OC)c1OC` [5eb, (4-Fluorophenyl)(2-(3,4,5-trimethoxyphenyl)-1H-imidazol-4-yl)methanone] showed an IC50 [1] of over 10000 nM.
In the case of `COc1cc(C(=O)c2c[nH]c(-c3ccc(N(C)C)cc3)n2)cc(OC)c1OC` [5ga, (2-(4-(Dimethylamino)phenyl)-1H-imidazol-4-yl)(3,4,5-trimethoxyphenyl)methanone], the IC50 [1] is reported as 131 nM, the “aqueous solubility, times greater than SMART-1” value ([3]; buffer pH7.0) is reported as “about 50 times” and the “aqueous solubility, times greater than SMART-1” value ([3]; water) is reported as about 10 times.
For `COc1cc(C(=O)c2c[nH]c(-c3ccc(C)cc3)n2)cc(OC)c1OC` [5da, (2-(p-Tolyl)-1H-imidazol-4-yl)(3,4,5-trimethoxyphenyl)methanone], the “inhibition of tubulin polymerization” value (Bovine brain tubulin) was “completely inhibited”.
Work on `O=S(=O)(c1ccccc1)n1ccnc1-c1ccc(OCc2ccccc2)cc1` [3j, 2-(4-(Benzyloxy)phenyl)-1-(phenylsulfonyl)-1H-imidazole] yielded an IC50 [1] of over 10000 nM.
`O=C(c1cccc(F)c1)c1c[nH]c(-c2ccccc2)n1` [5ag, (3-Fluorophenyl)(2-phenyl-1H-imidazol-4-yl)methanone] showed an IC50 [1] of over 10000 nM.
`COc1ccc(C(=O)c2c[nH]c(-c3ccccc3)n2)cc1` [5ab, (4-Methoxyphenyl)(2-phenyl-1 H-imidazol-4-yl)methanone] showed an IC50 [1] of over 10000 nM.
“(2-(4-(Dimethylamino)phenyl)-1-(phenylsulfonyl)-1H-imidazol-4-yl)(3, 4, 5-trimethoxyphenyl) methanone [4ga]” gave an IC50 [1] of 285 nM.
For “(2-(4-Chlorophenyl)-1-(phenylsulfonyl)-1H-imidazol-4-yl)(4-fluorophenyl)methanone [4fb]”, the IC50 (MDA-MB-435) was 50 ± 6 nM.
With `COc1cc(C(=O)c2c[nH]c(-c3ccc(OCc4ccccc4)cc3)n2)cc(OC)c1OC` [5ja, (2-(4-(Benzyloxy)phenyl)-1H-imidazol-4-yl)(3,4,5-trimethoxyphenyl)methanone] the IC50 [1] was 7300 nM.
For `COc1ccc(-c2nc(C(=O)c3ccc(F)cc3)c[nH]2)cc1` [5cb, (4-Fluorophenyl)(2-(4-methoxyphenyl)-1H-imidazol-4-yl)methanone], the weight loss [2] was “No significant weight loss”.
